Experimental data reported in US7183091B2, “Sulfite reductase, the process for producing the same and the use thereof” (Nugen Bioscience (Taiwan) Co., Ltd., priority 2003, dated 2007).
Where two headings read alike, the source gives them in different places.

Tests used:
[1] = test system: sulfite reductase from Escherichia coli; test: Effects of metal ions, inhibitors and reducing agents on enzyme activity; type: biochemical
Protocol: (§1) […]. To 0.9 mL reaction mixture [0.1 M phosphate buffer (pH 7.7) containing 0.5 mM EDTA, 0.5 mM NaHSO3, 1 μM FMN, and 0.2 mM NADPH], 0.1 mL of reductase was added and incubated at 25° C. The activity was determined according to the initial velocity after the addition of reductase and corrected by the slow oxidation of NADPH in the absence of sulfite. One activity unit was defined as the amount of enzyme which catalyzed the oxidation of 1 μmol NADPH within 1 minute reaction 25° C. under the above condition.

[2] = biological target: T1, sulfite reductase from Saccharomyces cerevisiae (Saccharomyces cerevisiae, UniProt P39692+P47169); test: as above; type: biochemical; settings: for effect of metal ions on catalytic activity: metals 0.5, 1.0, 5.0 and 10.0 mM
T1 construct: Saccharomyces cerevisiae cell was collected by 30 min centrifugation at 4,000×g; made in house; host or cells: endogenous enzyme purified from cultured Saccharomyces cerevisiae cells (not recombinant)
T1 sequence (P47169 1-1442): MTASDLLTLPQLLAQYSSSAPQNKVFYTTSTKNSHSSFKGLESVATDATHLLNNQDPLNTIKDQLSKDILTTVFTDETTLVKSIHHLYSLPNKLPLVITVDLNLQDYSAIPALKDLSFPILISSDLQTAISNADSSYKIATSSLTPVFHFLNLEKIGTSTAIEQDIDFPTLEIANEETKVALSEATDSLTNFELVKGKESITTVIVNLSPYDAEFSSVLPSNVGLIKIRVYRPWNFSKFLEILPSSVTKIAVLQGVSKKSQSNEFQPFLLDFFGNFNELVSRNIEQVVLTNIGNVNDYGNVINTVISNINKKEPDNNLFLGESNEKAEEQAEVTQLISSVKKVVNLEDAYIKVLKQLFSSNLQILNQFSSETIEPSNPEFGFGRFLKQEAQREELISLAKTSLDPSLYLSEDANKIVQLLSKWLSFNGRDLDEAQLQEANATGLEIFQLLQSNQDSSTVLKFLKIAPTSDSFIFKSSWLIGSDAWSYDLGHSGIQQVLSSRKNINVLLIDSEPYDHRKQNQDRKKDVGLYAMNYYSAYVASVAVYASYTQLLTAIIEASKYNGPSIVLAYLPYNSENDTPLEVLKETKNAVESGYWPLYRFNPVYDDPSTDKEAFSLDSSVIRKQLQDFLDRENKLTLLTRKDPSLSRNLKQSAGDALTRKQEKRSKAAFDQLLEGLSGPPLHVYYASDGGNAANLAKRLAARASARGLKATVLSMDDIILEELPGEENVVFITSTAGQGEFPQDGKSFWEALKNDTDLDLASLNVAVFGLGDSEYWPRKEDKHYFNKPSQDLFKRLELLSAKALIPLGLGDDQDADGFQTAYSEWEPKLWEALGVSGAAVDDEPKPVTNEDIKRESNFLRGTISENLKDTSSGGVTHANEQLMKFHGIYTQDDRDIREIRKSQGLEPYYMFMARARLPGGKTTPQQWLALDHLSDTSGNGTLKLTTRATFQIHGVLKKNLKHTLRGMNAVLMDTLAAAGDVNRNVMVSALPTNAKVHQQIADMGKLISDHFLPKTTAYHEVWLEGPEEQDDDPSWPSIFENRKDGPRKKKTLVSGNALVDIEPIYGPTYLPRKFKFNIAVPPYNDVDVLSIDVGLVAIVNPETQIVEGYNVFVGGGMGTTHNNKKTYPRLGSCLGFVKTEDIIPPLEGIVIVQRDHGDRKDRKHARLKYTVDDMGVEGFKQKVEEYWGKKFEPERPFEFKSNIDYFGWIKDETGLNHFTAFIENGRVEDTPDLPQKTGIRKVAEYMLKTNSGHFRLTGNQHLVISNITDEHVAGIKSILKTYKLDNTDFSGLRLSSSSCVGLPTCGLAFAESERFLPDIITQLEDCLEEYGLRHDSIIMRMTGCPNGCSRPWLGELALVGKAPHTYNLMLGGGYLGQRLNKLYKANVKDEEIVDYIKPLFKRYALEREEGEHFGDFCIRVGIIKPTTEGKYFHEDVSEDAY
T1 sequence (P39692 1-1035): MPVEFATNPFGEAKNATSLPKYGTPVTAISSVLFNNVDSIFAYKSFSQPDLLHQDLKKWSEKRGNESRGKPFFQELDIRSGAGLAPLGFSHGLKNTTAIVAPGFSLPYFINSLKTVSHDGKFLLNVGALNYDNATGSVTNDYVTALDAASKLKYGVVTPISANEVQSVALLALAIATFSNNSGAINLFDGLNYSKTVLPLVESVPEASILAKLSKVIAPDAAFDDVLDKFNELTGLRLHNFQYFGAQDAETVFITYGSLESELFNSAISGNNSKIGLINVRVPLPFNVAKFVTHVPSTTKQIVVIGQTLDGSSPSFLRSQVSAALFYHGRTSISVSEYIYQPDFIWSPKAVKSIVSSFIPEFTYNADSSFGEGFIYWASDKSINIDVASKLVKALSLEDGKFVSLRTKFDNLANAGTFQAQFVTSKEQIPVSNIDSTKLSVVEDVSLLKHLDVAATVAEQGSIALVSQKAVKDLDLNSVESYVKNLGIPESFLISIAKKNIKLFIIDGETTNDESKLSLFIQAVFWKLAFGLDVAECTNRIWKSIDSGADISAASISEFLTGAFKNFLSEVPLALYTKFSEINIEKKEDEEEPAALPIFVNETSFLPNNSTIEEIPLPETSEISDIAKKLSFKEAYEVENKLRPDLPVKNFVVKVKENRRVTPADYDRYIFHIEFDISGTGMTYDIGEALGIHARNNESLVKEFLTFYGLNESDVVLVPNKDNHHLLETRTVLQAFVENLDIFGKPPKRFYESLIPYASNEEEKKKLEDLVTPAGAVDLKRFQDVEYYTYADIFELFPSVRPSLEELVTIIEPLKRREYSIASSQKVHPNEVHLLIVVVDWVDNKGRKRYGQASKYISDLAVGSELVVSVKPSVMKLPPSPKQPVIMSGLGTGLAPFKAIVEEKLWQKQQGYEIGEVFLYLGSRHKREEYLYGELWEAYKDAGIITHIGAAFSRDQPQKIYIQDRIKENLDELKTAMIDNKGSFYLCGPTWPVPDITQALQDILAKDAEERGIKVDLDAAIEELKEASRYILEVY
Protocol: as §1

[3] = Optimal pH value of the sulfite reductase; type: biochemical; settings: 25° C., 5 minutes
Protocol: Optimal pH value. To 0.9 mL reaction mixture with various pHs (0.2 M citrated buffer: pH 4.0 to 6.0; 0.2 M phosphate buffer: pH 6.0 to 8.0 and 0.2 M bicarbonate buffer: pH 8.0 to 10,0; all buffers containing 0.5 mM EDTA, 0.5 mM NaHSO3, 1 μM FMN, and 0.2 mM NADPH), 0.1 mL of reductase was added and incubated at 25° C. for 5 minutes. The activity was determined from initial velocity and corrected by the oxidation of NADPH in the absence of sulfite according the method of Siegel and others (1973).

[4] = Determination of sulfite reductase activity (oxidation of NADPH by sulfite, 340 nm); type: biochemical
Protocol: The sulfite reductase activity was measured spectrophotometrically at 340 nm under aerobic conditions by following the oxidation of NADPH by sulfite according to the method of determining enzyme activity of Siegel and others (1973). To 0.9 mL reaction mixture [0.1 M phosphate buffer (pH 7.7) containing 0.5 mM EDTA, 0.5 mM NaHSO3, 1 μM FMN, and 0.2 mM NADPH], 0.1 mL of reductase was added and incubated at 25° C. The activity was determined according to the initial velocity after the addition of reductase and corrected by the slow oxidation of NADPH in the absence of sulfite. One activity unit was defined as the amount of enzyme which catalyzed the oxidation of 1 μmol NADPH within 1 minute reaction 25° C. under the above condition.

[5] = Stability of low temperature storage of the enzyme solution; type: physicochemical
Protocol: The enzyme solution was stored at 4° C. and −20° C., respectively. The residue enzyme activity was determined per constant time interval to test the stability of low-temperature storage.

[6] = Optimal temperature of the sulfite reductase; type: biochemical; settings: pH 7.7, 5 minutes
Protocol: Optimal temperature. To 0.9 mL reaction mixture [0.1 M phosphate buffer (pH 7.7) containing 0.5 mM EDTA, 0.5 mM NaHSO3, 1 μM FMN, and 0.2 mM NADPH], 0.1 mL of reductase was added and incubated at various temperatures (5, 10, 15, 20, 25, 30, 35, 40, 45, 50, 55 and 60° C.) for 5 minutes. The activity was determined from initial velocity and corrected by the oxidation of NADPH in the absence of sulfite according the method of Siegel and others (1973).

[7] = metals 0.5, 1.0, 5.0 and 10.0 mM, 25° C., 30 minutes
[8] = inhibitor 1.0 mM, 25° C., 30 minutes

| Compound | effect of metal ions on catalytic activity [1, 7] | effect of metal ions on catalytic activity ([2]; 25° C., 30 minutes) | other results |
| --- | --- | --- | --- |
| O=C(O)CI [IAA, Iodoacetate] | – | – | effect of inhibitors on catalytic activity [1]: partially; effect of inhibitors on catalytic activity [2]: partially |
| [Co+2] [Co^2+] | strongly inhibited | partially | – |
| [Ni+2] [Ni^2+] | – | partially | – |
| [Cd+2] [Cd^2+] | moderately | – | – |
| CCN1C(=O)C=CC1=O [NEM, N-ethylmaleimide] | – | – | effect of inhibitors on catalytic activity [1, 8]: partially; effect of inhibitors on catalytic activity [2, 8]: partially |
| [Pb+2] [Pb^2+] | – | strongly inhibited | – |
| O=S(=O)(O)c1cc[c]([Hg][Cl])cc1 [PCMPS, p-chloromercuriphenylsulfonic acid] | – | – | effect of inhibitors on catalytic activity [2, 8]: completely inhibited |
| [K+] [K^+] | – | did not affect the enzyme activity | effect of metal ions on catalytic activity [1]: did not affect the enzyme activity |
| O=C(O)c1cc[c]([Hg][Cl])cc1 [PCMB, p-chloromercuribenzoate] | – | – | effect of inhibitors on catalytic activity [1, 8]: completely inhibited; effect of inhibitors on catalytic activity [2, 8]: completely inhibited |
| N[C@@H](CS)C(=O)O [cysteine] | – | – | effect of reducing agents on enzyme activity [1]: improved the activity; effect of reducing agents on enzyme activity [2]: improved the activity |
| [Mn+2] [Mn^2+] | moderately | partially | – |
| sulfite reductase from Saccharomyces cerevisiae: purified sulfite reductase from Saccharomyces cerevisiae (CCRC 22223), molecular weight 358,000 | – | – | optimum pH [3]: 7.3; specific activity ([4]; Table 2, purification steps of the Saccharomyces cerevisiae enzyme): 1.34 units/mg; specific activity ([4]; purified enzyme, 25° C., pH 7.7): 1.34 units/mg; enzyme activity after storage ([5]; enzyme solution stored for 2 months at −20° C.): nearly not changed; enzyme activity after storage ([5]; enzyme solution stored for 28 days at 4° C.): 77.8%; optimum temperature [6]: 25 °C |
| [Na+] [Na^+] | did not affect the enzyme activity | did not affect the enzyme activity | – |
| [Mg+2] [Mg^2+] | did not affect the enzyme activity | did not affect the enzyme activity | – |
| N[C@@H](CCC(=O)N[C@@H](CS)C(=O)NCC(=O)O)C(=O)O [glutathione] | – | – | effect of reducing agents on enzyme activity [1]: improved the activity; effect of reducing agents on enzyme activity [2]: improved the activity |
| [Zn+2] [Zn^2+] | moderately | strongly inhibited | – |
| O[C@H](CS)[C@H](O)CS (racemic) [dithiothreitol] | – | – | effect of reducing agents on enzyme activity [1]: improved the activity; effect of reducing agents on enzyme activity [2]: improved the activity |
| [Hg+2] [Hg^2+] | strongly inhibited | strongly inhibited | – |
| OCCS [β-mercaptoethanol] | – | – | effect of reducing agents on enzyme activity [1]: improved the activity; effect of reducing agents on enzyme activity [2]: improved the activity |
| [Ca+2] [Ca^2+] | strongly inhibited | did not affect the enzyme activity | – |
| [Fe+2] [Fe^2+] | strongly inhibited | partially | – |
| [Cu+2] [Cu^2+] | strongly inhibited | strongly inhibited | – |
| [Ba+2] [Ba^2+] | moderately | partially | – |
| O=S(=O)(F)Cc1ccccc1 [PMSF, phenylmethylsulfonyl fluoride] | – | – | effect of inhibitors on catalytic activity [1, 8]: partially; effect of inhibitors on catalytic activity [2, 8]: partially |
